Reference: ChEMBL document CHEMBL1201862, “PubChem BioAssay data set” (2004)
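Dose response: 5 concentrations. Exposure: 48 h. Format: 96-well plates. Endpoint: linear interpolation; highest concentration if not reached. GI50 = concentration required for 50% inhibition of growth.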 Calls of active or inactive are those of the source. No stated cut-off is given here; in the data, active = GI50 up to about 1.1 µM and inactive = higher. Where a SMILES comes first, the peptide text is derived from it. The star is where a group is joined. Cbz = O=C(OCc1ccccc1)*; Boc = CC(C)(C)OC(=O)*; OSu = O=C1CCC(=O)N1O*; Bn = c1ccc(C*)cc1

Experiments:
Test in all cases: inhibition of tumour cell growth, NCI panel, 48 h
786-0 = system: 786-0
A498 = system: A498
A549 = system: A549
CAKI-1 = system: CAKI-1
DU-145 = system: DU-145
HOP-62 = system: HOP-62
Hs-578T = system: Hs-578T
IGROV-1 = system: IGROV-1
K562 = system: K562
M14 = system: M14
NCI-H460 = system: NCI-H460
NCI-H522 = system: NCI-H522
OVCAR-3 = system: OVCAR-3
SNB-19 = system: SNB-19
SNB-75 = system: SNB-75
SW-620 = system: SW-620
U-251 = system: U-251
UACC-257 = system: UACC-257
UACC-62 = system: UACC-62
RPMI-8226 = system: RPMI-8226

Compound	GI50 (786-0)	GI50 (A498)	GI50 (A549)	GI50 (CAKI-1)	GI50 (DU-145)	GI50 (HOP-62)	GI50 (Hs-578T)	GI50 (IGROV-1)	GI50 (K562)	GI50 (M14)	GI50 (NCI-H460)	GI50 (NCI-H522)	GI50 (OVCAR-3)	GI50 (SNB-19)	GI50 (SNB-75)	GI50 (SW-620)	GI50 (U-251)	GI50 (UACC-257)	GI50 (UACC-62)	GI50 (RPMI-8226)
COC(=O)CC1C2CC3C(C2=O)C13 (configuration not stated)	> 100 µM (inactive)	> 100 µM (inactive)	> 100 µM (inactive)	> 100 µM (inactive)	> 100 µM (inactive)	> 100 µM (inactive)	> 100 µM (inactive)	> 100 µM (inactive)	> 100 µM (inactive)	> 100 µM (inactive)	> 100 µM (inactive)	> 100 µM (inactive)	> 100 µM (inactive)	> 100 µM (inactive)	58.1 µM (inactive)	> 100 µM (inactive)	> 100 µM (inactive)	> 100 µM (inactive)	> 100 µM (inactive)	–
CNC(=O)NS(=O)(=O)c1ccc(C)cc1.NS(=O)O	> 100 µM (inactive)	–	> 100 µM (inactive)	–	> 100 µM (inactive)	> 100 µM (inactive)	> 100 µM (inactive)	> 100 µM (inactive)	> 100 µM (inactive)	> 100 µM (inactive)	> 100 µM (inactive)	> 100 µM (inactive)	–	> 100 µM (inactive)	> 100 µM (inactive)	> 100 µM (inactive)	> 100 µM (inactive)	> 100 µM (inactive)	> 100 µM (inactive)	> 100 µM (inactive)
CC(=O)c1c(O)ccc2c1c1c(n2C)C(=O)c2ccccc2C1=O	4.9 µM (inactive)	2.84 µM (inactive)	5.66 µM (inactive)	5.24 µM (inactive)	3.21 µM (inactive)	6.53 µM (inactive)	2.82 µM (inactive)	1.82 µM (inactive)	> 100 µM (inactive)	–	3.21 µM (inactive)	–	1.81 µM (inactive)	7.28 µM (inactive)	2.32 µM (inactive)	–	4.63 µM (inactive)	> 100 µM (inactive)	–	1.46 µM (inactive)
Cc1ccccc1/N=N/c1c(O)ccc2ccccc12	48.9 µM (inactive)	–	69.3 µM (inactive)	> 100 µM (inactive)	> 100 µM (inactive)	48.1 µM (inactive)	49.3 µM (inactive)	59.2 µM (inactive)	> 100 µM (inactive)	> 100 µM (inactive)	–	> 100 µM (inactive)	> 100 µM (inactive)	> 100 µM (inactive)	> 100 µM (inactive)	> 100 µM (inactive)	70.1 µM (inactive)	> 100 µM (inactive)	> 100 µM (inactive)	> 100 µM (inactive)
COc1ccc2c(C)cc(=O)oc2c1OC	> 100 µM (inactive)	> 100 µM (inactive)	> 100 µM (inactive)	–	> 100 µM (inactive)	> 100 µM (inactive)	> 100 µM (inactive)	> 100 µM (inactive)	> 100 µM (inactive)	> 100 µM (inactive)	–	–	> 100 µM (inactive)	> 100 µM (inactive)	> 100 µM (inactive)	> 100 µM (inactive)	> 100 µM (inactive)	> 100 µM (inactive)	> 100 µM (inactive)	> 100 µM (inactive)
Cn1nc2ccc(Nc3cc(=O)[nH]c4ccc5nn(C)nc5c34)cc2n1	> 100 µM (inactive)	> 100 µM (inactive)	> 100 µM (inactive)	> 100 µM (inactive)	> 100 µM (inactive)	> 100 µM (inactive)	> 100 µM (inactive)	50.5 µM (inactive)	50 µM (inactive)	> 100 µM (inactive)	> 100 µM (inactive)	65.6 µM (inactive)	> 100 µM (inactive)	> 100 µM (inactive)	> 100 µM (inactive)	> 100 µM (inactive)	> 100 µM (inactive)	> 100 µM (inactive)	> 100 µM (inactive)	–
Cc1ccc(N2C3=C(CC4=C2CC(C)(C)CC4=O)C(=O)CC(C)(C)C3)cc1	> 100 µM (inactive)	> 100 µM (inactive)	> 100 µM (inactive)	> 100 µM (inactive)	> 100 µM (inactive)	> 100 µM (inactive)	20.6 µM (inactive)	> 100 µM (inactive)	> 100 µM (inactive)	> 100 µM (inactive)	> 100 µM (inactive)	–	> 100 µM (inactive)	> 100 µM (inactive)	27.6 µM (inactive)	> 100 µM (inactive)	> 100 µM (inactive)	> 100 µM (inactive)	> 100 µM (inactive)	> 100 µM (inactive)
NC(=O)c1cc2ccccc2o/c1=N/c1ccccc1	> 100 µM (inactive)	> 100 µM (inactive)	> 100 µM (inactive)	> 100 µM (inactive)	> 100 µM (inactive)	> 100 µM (inactive)	> 100 µM (inactive)	> 100 µM (inactive)	> 100 µM (inactive)	> 100 µM (inactive)	> 100 µM (inactive)	–	> 100 µM (inactive)	> 100 µM (inactive)	> 100 µM (inactive)	> 100 µM (inactive)	> 100 µM (inactive)	> 100 µM (inactive)	> 100 µM (inactive)	> 100 µM (inactive)
COc1ccc(C(SC2C(O)C(CO)OC2n2ccc(=O)[nH]c2=O)(c2ccccc2)c2ccc(OC)cc2)cc1 (configuration not stated)	16.3 µM (inactive)	–	16.4 µM (inactive)	30.4 µM (inactive)	18.4 µM (inactive)	17.9 µM (inactive)	20.9 µM (inactive)	17.7 µM (inactive)	31.6 µM (inactive)	11.3 µM (inactive)	10.9 µM (inactive)	14.7 µM (inactive)	17.6 µM (inactive)	12.4 µM (inactive)	18.5 µM (inactive)	22.2 µM (inactive)	13.9 µM (inactive)	16.1 µM (inactive)	15.9 µM (inactive)	32.8 µM (inactive)
NNC(=O)c1cc(=O)[nH][nH]1	> 100 µM (inactive)	–	> 100 µM (inactive)	> 100 µM (inactive)	> 100 µM (inactive)	–	> 100 µM (inactive)	> 100 µM (inactive)	> 100 µM (inactive)	> 100 µM (inactive)	> 100 µM (inactive)	> 100 µM (inactive)	–	> 100 µM (inactive)	> 100 µM (inactive)	> 100 µM (inactive)	> 100 µM (inactive)	> 100 µM (inactive)	> 100 µM (inactive)	> 100 µM (inactive)
CCCC1(CCC)c2cc(/C=N\O)ccc2-c2ccc(-c3ccc(C(C)(C)C)cc3)cc21	37.4 µM (inactive)	> 10 µM (inactive)	53.7 µM (inactive)	> 100 µM (inactive)	> 100 µM (inactive)	> 100 µM (inactive)	88.3 µM (inactive)	61.9 µM (inactive)	45.7 µM (inactive)	50.2 µM (inactive)	38.5 µM (inactive)	–	22.9 µM (inactive)	> 100 µM (inactive)	67.1 µM (inactive)	34.2 µM (inactive)	> 10 µM (inactive)	93.1 µM (inactive)	–	33.7 µM (inactive)
COC1=CC2=NCCc3n[nH]c(c32)C1=O	18.5 µM (inactive)	23.5 µM (inactive)	24.3 µM (inactive)	–	–	31.7 µM (inactive)	29.8 µM (inactive)	19.1 µM (inactive)	0.0545 µM (active)	15 µM (inactive)	27 µM (inactive)	3.51 µM (inactive)	15.9 µM (inactive)	46 µM (inactive)	–	13.6 µM (inactive)	16.7 µM (inactive)	15.6 µM (inactive)	14 µM (inactive)	11.5 µM (inactive)
O[C@H]1[C@H](O)[C@@H](O)[C@H](O)[C@@H](O)[C@H]1O [INOSITOL]	> 1000 µM (inactive)	> 1000 µM (inactive)	> 1000 µM (inactive)	–	> 1000 µM (inactive)	> 1000 µM (inactive)	> 1000 µM (inactive)	> 1000 µM (inactive)	> 1000 µM (inactive)	> 1000 µM (inactive)	> 1000 µM (inactive)	–	> 1000 µM (inactive)	> 1000 µM (inactive)	0.1 µM (active)	> 1000 µM (inactive)	> 1000 µM (inactive)	> 1000 µM (inactive)	> 1000 µM (inactive)	> 1000 µM (inactive)
CCC(NC(C)c1ccccc1)C(=O)c1ccc(OCc2ccccc2)c(OCc2ccccc2)c1 (configuration not stated)	> 100 µM (inactive)	–	> 100 µM (inactive)	> 100 µM (inactive)	> 100 µM (inactive)	> 100 µM (inactive)	> 100 µM (inactive)	> 100 µM (inactive)	4.81 µM (inactive)	> 100 µM (inactive)	> 100 µM (inactive)	> 100 µM (inactive)	> 100 µM (inactive)	> 100 µM (inactive)	> 100 µM (inactive)	> 100 µM (inactive)	> 100 µM (inactive)	–	> 100 µM (inactive)	> 100 µM (inactive)
CC(C)(C)OC(=O)NC(Cc1ccc(OCc2ccccc2)cc1)C(=O)NC(CCCCNC(=O)OCc1ccccc1)C(=O)ON1C(=O)CCC1=O (configuration not stated) (Boc-Tyr(Bn)-Lys(Cbz)-OSu; configuration not given here)	18.9 µM (inactive)	48.3 µM (inactive)	34.1 µM (inactive)	–	–	19.5 µM (inactive)	20.3 µM (inactive)	16.8 µM (inactive)	27 µM (inactive)	19.4 µM (inactive)	21.7 µM (inactive)	–	–	16.7 µM (inactive)	21.8 µM (inactive)	20.7 µM (inactive)	17 µM (inactive)	34.3 µM (inactive)	18.2 µM (inactive)	20 µM (inactive)
